{
  "source": "patent US20080076772A1",
  "about": "“Anti-Inflammatory Agents” (Pharma Mar S.A. Sociedad Unipersonal, priority 2004, published 2008)",
  "key": {"TNF [1]": {"tested_on": "TNF", "experiment": "TNF production by LPS-stimulated in vitro differentiated macrophages (ELISA)", "format": "cell-based, human", "details": "LPS 100 ng/ml, 16 h incubation", "description": "(§1) Monocytes, macrophages and TAM were stimulated with 100 ng/ml LPS to induce maximal cytokine production. Determination of cytokines CCL2, TNF and IL-6 was measured by specific ELISA following the manufacturer's instructions.\n(§2) To verify whether the inhibitory effect of ecteinascidin 743 on cytokine production was at the transcriptional level, we analyzed mRNA of CCL2 and TNF from LPS-stimulated macrophages by real time-PCR of CCL2 and TNF transcripts in LPS-stimulated monocytes exposed to ecteinascidin 743."}, "IL-6 [2]": {"tested_on": "IL-6", "experiment": "Constitutive IL-6 production by freshly isolated ovarian tumour cells (ELISA)", "format": "cell-based, human", "details": "16 h", "excerpt": "Tumour-associated macrophages (TAM) and tumour cells were isolated from the ascitic fluid of patients with diagnosed ovarian adenocarcinoma, admitted to the Clinic of Obstetrics and Gynecology of the University of Milan-Bicocca, S Gerardo Hospital. Cells contained in the ascitic fluid were centrifuged and isolated by differential density gradients of Ficoll and Percoll, and plastic adherence as previously described (see Allavena, P., Peccatori, F., Maggioni, D., Erroi, A., Sironi, M., Colombo, N., Lissoni, A., Galazka, A., Meiers, W., Mangioni, C., et al. Intraperitoneal recombinant gamma-interferon in patients with recurrent ascitic ovarian carcinoma: modulation of cytotoxicity and cytokine production in tumour-associated effectors and of major histocompatibility antigen expression on tumour cells. Cancer Res, 50: 7318-7323, 1990). Purity of TAM and tumour cell preparations was usually>65±10% as defined by morphology and phenotype analysis. Cells were treated with ecteinascidin 743 at the indicated concentrations and cultured for 1-5 days, as specified in figure legends. […]\nMonocytes, macrophages and TAM were stimulated with 100 ng/ml LPS to induce maximal cytokine production. Determination of cytokines CCL2, TNF and IL-6 was measured by specific ELISA following the manufacturer's instructions. […]"}, "thymocytes": {"tested_on": "thymocytes", "experiment": "Cell viability of freshly isolated thymocytes (PI staining, flow cytometry)", "format": "cell-based", "details": "Homo sapiens, Thymocyte, 48 h", "description": "Purified populations of human blood monocytes were prepared as previously described by differential density centrifugation on Ficoll and Percoll gradients (see Allavena, P., Piemonti, L., Longoni, D., Bernasconi, S., Stoppacciaro, A., Ruco, L., and Mantovani, A. IL-10 prevents the differentiation of monocytes to dendritic cells but promotes their maturation to macrophages. Eur J Immunol, 28: 359-369, 1998). […] Human thymocytes were isolated from resected thymus from pediatric patients undergoing surgery. Thymocytes were obtained by teasing and isolated on Percoll gradient.\nCell viability was analyzed by DNA content in Flow Cytometry\nCells exposed to treatments were fixed with ethanol 70%, washed in PBS and stained with propidium iodide (PI) solution containing 10 ug/ml PI in PBS and 25 μl RNAse 10,000 units, overnight in the dark. PI incorporation was evaluated on at least 20,000 cells/sample using a FACS Calibur instrument (Becton Dickinson, Sunnyvale, Calif., USA), with a bandpass filter at 620 nm. Apoptosis was detected by staining with AnnexinV and PI. FACS analysis was performed using a bandpass filter 530 and 620 nm for green (AnnexinV) and red (PI) fluorescence respectively, in combination with a […] dichroic mirror.\nPurified preparations of blood monocytes, lymphocytes and thymocytes were cultured with different concentrations of ecteinascidin 743 for 48 h. […]"}, "TNF [3]": {"tested_on": "TNF", "experiment": "TNF production by LPS-stimulated TAM (ELISA)", "format": "cell-based, human", "details": "LPS 100 ng/ml, 16 h incubation, up to 10 nM", "description": "as §1, §2"}, "IL-6 [4]": {"tested_on": "IL-6", "experiment": "IL-6 production by LPS-stimulated in vitro differentiated macrophages (ELISA)", "format": "cell-based", "details": "Homo sapiens, Macrophage; 5 nM, n=2; read-out: overall inhibition of IL-6 production, macrophages", "description": "as §1, with “Supernatants of untreated cells or cells treated with ecteinascidin 743 or other anti-neoplastic agents were collected after 24 h culture and frozen. Monocytes,” for “Monocytes,”\nMonocytes and in vitro differentiated macrophages were stimulated with LPS (100 ng/ml). After 1 h LPS stimulation they were treated with ecteinascidin 743. After 16 h incubation, cell supernatants were harvested and tested in ELISA. Under these treatment conditions cell viability was usually >85% for concentrations up to 5 nM. […] Mean inhibition at 5 nM, for monocytes, was 65% (range 50-80%, n=5) and was 50% (range 25-75%, n=5) for in vitro differentiated macrophages. Results are mean+/−SE of 3-5 experiments\nWe also tested two other cytokines, IL-6 and TNF, produced by macrophages and tumour cells, which have inflammatory properties and also act as growth factors for some tumours. IL-6 production was always reduced after ecteinascidin 743 treatment, with an overall inhibition at 5 nM of 54% (range 51-57%, n=2) and 69% (range 66-72%, n=2), in monocytes and macrophages, respectively (FIG. 6B). […]"}, "CCL2": {"tested_on": "CCL2", "experiment": "CCL2 production induced by exposure of monocytes to tumor cell supernatants", "format": "cell-based, human", "details": "Homo sapiens, Monocyte; for inhibition at 0.0025 µM: 2.5 nM; for inhibition at 0.005 µM: 5 nM", "description": "We also tested five other ecteinascidin compounds (Table 2) for their capacity to inhibit the production of CCL2 by human monocytes in vitro. […] The extent of inhibition of ET637 Derivative A was even more pronouced compared to ET743. In Table 2 is shown that the production of CCL2, induced by exposure of monocytes to tumor cell supernatants, is inhibited up to 80% and 97% at 2.5 and 5 nM, respectively, in two different donors. In the same experiment ET743 inhibited between 30% and 70%."}, "[5]": {"details": "read-out: % inhibition of CCL2 production, Donor A"}, "[6]": {"details": "read-out: % inhibition of CCL2 production, Donor B"}},
  "note": "Where two headings read alike, the source gives them in different places.",
  "data": [
    {"smiles": "COc1cc2c(cc1O)CCN[C@]21CS[C@@H]2c3c(OC(C)=O)c(C)c4c(c3[C@H](COC1=O)N1[C@@H]2[C@H]2c3c(cc(C)c(OC)c3O)C[C@@H]([C@@H]1O)N2C)OCO4", "note": "[ecteinascidin 743]", "values": [
      {"measurement": "production of TNF by macrophages", "setting": "TNF [1]", "value": "never inhibited"},
      {"measurement": "constitutive production of IL-6 by freshly isolated tumour cells", "setting": "IL-6 [2]", "value": "reduced"},
      {"measurement": "IC50", "setting": "thymocytes", "value": "> 40", "unit": "nM"},
      {"measurement": "production of TNF by TAM", "setting": "TNF [3]", "value": "never inhibited"},
      {"measurement": "inhibition at 0.005 µM", "setting": "IL-6 [4]", "value": 69, "unit": "%"},
      {"measurement": "inhibition at 0.0025 µM", "setting": "CCL2; [5]", "value": 30, "unit": "%"},
      {"measurement": "inhibition at 0.0025 µM", "setting": "CCL2; [6]", "value": 60, "unit": "%"},
      {"measurement": "inhibition at 0.005 µM", "setting": "CCL2; [5]", "value": 70, "unit": "%"},
      {"measurement": "inhibition at 0.005 µM", "setting": "CCL2; [6]", "value": 70, "unit": "%"}
    ]}
  ]
}
